Earlier results, collected in patent US20210213132A1, “FORMULATIONS OF SN-38 WITH POLY(AMINO ACID) BLOCK POLYMERS” (Tyndall Formulation Services, LLC, priority 2020, published 2021).
Like-named read-outs stand apart in the source and are kept apart here.

Legend:
[1] = biological target: T1, topoisomerase I (Homo sapiens, UniProt P11387); settings: SN-38 versus irinotecan
T1 sequence (P11387 1-765): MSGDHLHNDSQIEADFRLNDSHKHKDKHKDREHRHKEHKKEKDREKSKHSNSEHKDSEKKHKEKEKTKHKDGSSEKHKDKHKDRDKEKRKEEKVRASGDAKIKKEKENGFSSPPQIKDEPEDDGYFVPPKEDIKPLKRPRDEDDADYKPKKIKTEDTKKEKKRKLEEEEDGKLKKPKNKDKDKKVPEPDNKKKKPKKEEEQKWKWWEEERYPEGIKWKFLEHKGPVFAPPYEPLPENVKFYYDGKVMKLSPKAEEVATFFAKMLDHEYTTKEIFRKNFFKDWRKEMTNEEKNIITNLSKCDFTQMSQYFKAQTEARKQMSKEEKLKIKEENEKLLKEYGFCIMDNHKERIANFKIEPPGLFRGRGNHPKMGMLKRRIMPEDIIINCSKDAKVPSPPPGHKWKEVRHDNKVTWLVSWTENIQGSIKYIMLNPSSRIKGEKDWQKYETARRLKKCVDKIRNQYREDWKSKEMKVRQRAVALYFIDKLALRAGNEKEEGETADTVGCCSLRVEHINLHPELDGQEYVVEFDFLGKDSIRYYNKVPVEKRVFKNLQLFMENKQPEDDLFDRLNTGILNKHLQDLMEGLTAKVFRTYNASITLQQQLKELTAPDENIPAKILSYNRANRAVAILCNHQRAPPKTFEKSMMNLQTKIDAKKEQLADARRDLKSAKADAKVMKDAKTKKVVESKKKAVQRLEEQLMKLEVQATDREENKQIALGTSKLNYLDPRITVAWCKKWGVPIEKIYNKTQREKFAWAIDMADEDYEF

[2] = test system: carboxylesterases, specifically CES1 and CES2
[3] = test system: metastatic colorectal cancer patients; settings: patients treated with irinotecan

In the case of `CCc1c2c(nc3ccc(O)cc13)-c1cc3c(c(=O)n1C2)COC(=O)[C@]3(O)CC` [SN-38], the “Potency relative to irinotecan” value [1] is listed as 100 to 1000 fold and the “Solubility in aqueous media” value is listed as “extremely insoluble”.

In the case of `CCc1c2c(nc3ccc(OC(=O)N4CCC(N5CCCCC5)CC4)cc13)-c1cc3c(c(=O)n1C2)COC(=O)[C@]3(O)CC` [Irinotecan], the “Affinity of the carboxylesterases for irinotecan” value [2] is given as “low”, the “Percentage of patients experiencing asthenia” value ([3]; UGT1A1 *1/*1 genotype) is given as 25% and the “Percentage of patients experiencing diarrhea” value ([3]; UGT1A1 *1/*1 genotype) is given as 17%. For the same compound, the “Percentage of patients experiencing neutropenia” value ([3]; UGT1A1 *1/*1 genotype) was 15%, the “Percentage of patients experiencing asthenia” value ([3]; UGT1A1 *1/*28 genotype) was 38% and the “Percentage of patients experiencing diarrhea” value ([3]; UGT1A1 *1/*28 genotype) was 33%. The “Percentage of patients experiencing neutropenia” value ([3]; UGT1A1 *1/*28 genotype) was 27%, the “Percentage of patients experiencing asthenia” value ([3]; UGT1A1 *28/*28 genotype) was 70% and the “Percentage of patients experiencing diarrhea” value ([3]; UGT1A1 *28/*28 genotype) was 70%. The “Percentage of patients experiencing neutropenia” value ([3]; UGT1A1 *28/*28 genotype) was 40%.
